Results taken from article PMC5307958 (Scientific Reports, 2017).
“Also recorded” adds a separate entry of the source. Where a SMILES comes first, the peptide text is derived from it. Bridges are numbered along the chain shown (N, C = ends).

How the values were obtained:
[1] = system: wild-type worms (N2 Bristol; BK channel ortholog SLO-1); assay: C. elegans crawl speed, wild-type; type: in vivo, Caenorhabditis elegans; conditions: for crawl speed relative to controls: 30 min pre-incubation in puddle, age-matched day one adults, tracked 1 min, p < 0.001; for effect on crawl speed: wild type, 30 min, p<0.001, N=81-210, planned Student's t-tests
Protocol: (§1) Worms were cultivated at 20 °C as described with OP50 bacteria. Worms cultured on plates contaminated with fungi or other bacteria were excluded from this study. The reference wild-type strain was N2 Bristol. The reference slo-1(null) strain and background for transgenic strains was NM1968, harboring the previously characterized null allele, js379[29]. Multi-site gateway technology (Invitrogen) was used to construct plasmids. […] of the native slo-1 promoter (Pslo-1) and the traditional unc-54 UTR were used in combination with slo-1a(cDNA)::mCherry for a rescue construct. To test rescue with the human BK channel, an hslo(ZERO isoform, cDNA)::mCherry version was constructed. The slo-1(+) and hslo(+) plasmids were injected at a concentration of 20 and 10 ng/μl, respectively. The co-injection reporter PCFJ90 (1.25 ng/μl) was used to ensure proper transformation of the arrays. As such, JPS345 carried vxEx345, an extrachromosomal array containing [Pslo-1::slo-1::mCherry::unc-54UTR,Pmyo-2::mCherry::unc-54UTR]. JPS340 carried […], an extrachromosomal array containing [Pslo-1::hslo::mCherry::unc-54UTR,Pmyo-2::mCherry::unc-54UTR].
(§2) Age-matched day one adults were cleaned of bacteria by letting them crawl around on an unseeded plate and then moved into a puddle of NGM or peptide dissolved in NGM on another unseeded plate. NGM and peptide treatment groups were always run in tandem to control for behavioral variance. While much shorter than typical drug applications in C. elegans, brief application in liquid was chosen to avoid potential catabolic by-products of incubation on metabolically active E. coli. Higher LS3 concentrations were used to compensate. The puddle was refreshed 1–2 times as needed, but let to fully absorb into the agar by 30 minutes. After 30 minutes, crawl behavior was videoed (Flea2 camera, Point Grey Research, Canada; StreamPix 3, NorPix, Canada). Copper rings restricted movement to a proscribed area. The worms were tracked offline using custom macros (Image-Pro, MediaCybernetics, Rockville, MD) for 1 minute to obtain crawl speed (cm/min). Group means ± SEM for peptide-treated vs. vehicle-treated controls were compared at each concentration with Student’s t-tests. Rescue analysis was completed with two-way ANOVA (SigmaPlot, San Jose, CA). Crawl speeds for the peptide treated groups were also normalized to the performance of yoked controls. Normalized group means±SEM were compared vs. slo-1 null performance by two-way ANOVA.

[2] = system: slo-1 null worms (NM1968, js379); assay: C. elegans crawl speed, slo-1 null; type: in vivo, Caenorhabditis elegans; conditions: for effect on crawl speed (LS3 reduced crawl speed for wild type but not slo-1(null)): 30 min
Protocol: as §1, §2

[3] = system: slo-1(+) worm BK channel gene expressed in slo-1(null) worms; assay: C. elegans crawl speed, slo-1(+) rescue on slo-1 null background; type: in vivo, Caenorhabditis elegans; conditions: 750 μM LS3, 30 min; transgenic slo-1(+) on slo-1(null) background; vs. slo-1(null): p < 0.001, N = 78–162
Protocol: as §1
Age-matched day one adults were cleaned of bacteria by letting them crawl around on an unseeded plate and then moved into a puddle of NGM or peptide dissolved in NGM on another unseeded plate. […]

[4] = target: T1, human BKα channel (ZERO isoform) expressed in HEK293 cells (Homo sapiens, UniProt Q12791); assay: Patch-clamp recording, inside-out patches, intracellular application; type: cell-based; conditions: 50 nM LS3 applied to intracellular (internal) side; n.s., N = 6
T1 construct: expressed in transfected cells; host or cells: HEK293 (ATCC), transient transfection with Lipofectamine 2000; EGFP cotransfected as a separate marker
T1 sequence (Q12791 1-1178 isoform Q12791-5): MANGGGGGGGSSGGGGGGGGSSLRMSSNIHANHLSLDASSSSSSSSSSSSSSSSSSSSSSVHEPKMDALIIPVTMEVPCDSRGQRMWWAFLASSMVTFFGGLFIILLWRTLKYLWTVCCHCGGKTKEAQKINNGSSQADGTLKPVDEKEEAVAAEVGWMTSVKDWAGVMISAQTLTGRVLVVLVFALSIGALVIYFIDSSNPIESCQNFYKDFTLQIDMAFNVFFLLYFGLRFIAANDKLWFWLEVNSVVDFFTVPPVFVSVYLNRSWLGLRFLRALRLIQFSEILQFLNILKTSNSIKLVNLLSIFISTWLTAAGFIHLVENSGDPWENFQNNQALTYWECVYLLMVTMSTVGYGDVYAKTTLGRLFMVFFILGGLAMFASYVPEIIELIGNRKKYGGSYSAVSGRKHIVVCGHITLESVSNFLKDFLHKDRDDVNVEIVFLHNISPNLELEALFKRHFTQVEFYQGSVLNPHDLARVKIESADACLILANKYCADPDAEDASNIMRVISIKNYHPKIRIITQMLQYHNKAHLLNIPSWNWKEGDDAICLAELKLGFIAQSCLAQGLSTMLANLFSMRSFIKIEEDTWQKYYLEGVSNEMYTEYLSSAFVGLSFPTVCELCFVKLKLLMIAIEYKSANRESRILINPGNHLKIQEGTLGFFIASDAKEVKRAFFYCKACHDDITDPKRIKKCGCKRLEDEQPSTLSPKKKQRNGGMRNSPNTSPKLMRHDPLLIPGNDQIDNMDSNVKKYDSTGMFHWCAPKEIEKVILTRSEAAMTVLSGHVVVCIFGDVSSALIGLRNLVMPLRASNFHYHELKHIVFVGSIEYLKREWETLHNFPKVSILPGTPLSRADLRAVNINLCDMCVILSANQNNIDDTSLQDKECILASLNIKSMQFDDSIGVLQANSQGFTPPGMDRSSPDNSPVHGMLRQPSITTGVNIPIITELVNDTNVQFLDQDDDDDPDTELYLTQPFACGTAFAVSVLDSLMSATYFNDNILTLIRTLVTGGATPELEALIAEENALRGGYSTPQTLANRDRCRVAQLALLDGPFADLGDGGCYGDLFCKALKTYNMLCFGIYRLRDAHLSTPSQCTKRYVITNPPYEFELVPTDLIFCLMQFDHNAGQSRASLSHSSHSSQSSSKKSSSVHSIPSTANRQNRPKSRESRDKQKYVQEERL

mAcetylcholine M1 = assay: Competition radioligand binding (NIMH PDSP); conditions: radioligand QNB, measured 4 times
mAcetylcholine M3 = assay: Competition radioligand binding (NIMH PDSP); conditions: radioligand QNB, measured 4 times
mAcetylcholine M4 = assay: Competition radioligand binding (NIMH PDSP); conditions: radioligand QNB, measured 4 times
[5] = Blood-brain barrier crossing inferred from functional activity in the IC; type: in vivo, mouse; conditions: inferred from suppression of sound evoked activity after topical (dura) or systemic (0.3 mg/kg I.P.) administration
Protocol: The temperature was maintained near 25 °C.

[6] = system: mouse inferior colliculus (auditory midbrain); assay: Sound evoked activity within excitatory receptive field (eRF), systemic administration; conditions: for spikes within the eRF, representative eRF: baseline 522 spikes, BF 19.5 kHz
[7] = system: mouse inferior colliculus (auditory midbrain); assay: Sound evoked activity within excitatory receptive field (eRF), topical application on dura

Structure (SMILES): CC(C)C[C@@H]1NC(=O)CNC(=O)[C@H](CCCNC(=N)N)NC(=O)[C@H](CCCNC(=N)N)NC(=O)[C@@H](N)CSSC[C@@H](C(=O)O)NC(=O)[C@H](C(C)C)NC(=O)[C@H](CCC(N)=O)NC(=O)[C@H](C(C)C)NC1=O [LS3] (H-CRRGLVQVC-OH; disulfide 1-9; N-terminus and C-terminus assumed)
- crawl speed relative to controls ([1]; 250 μM LS3 in NGM): ~ 85%
- crawl speed relative to controls ([1]; 750 μM LS3 in NGM): ~ 70%
- effect on crawl speed ([1]; 75 µM LS3 vs. vehicle): reduced
- effect on crawl speed ([1]; 250 µM LS3 vs. vehicle): reduced
- effect on crawl speed ([1]; 750 µM LS3 vs. vehicle): reduced
- effect on crawl speed / locomotion ([1]; wild-type, LS3 in NGM, 30 min bath, WT vs. slo-1(null) at 250 and 750 μM: p < 0.05 and p < 0.001, N = 139–372): reduced crawl speed; also recorded: slowed locomotion in a concentration-dependent manner
- effect on crawl speed (LS3 reduced crawl speed for wild type but not slo-1(null)) ([2]; 75 µM LS3 vs. vehicle): not
- effect on crawl speed (LS3 reduced crawl speed for wild type but not slo-1(null)) ([2]; 250 µM LS3 vs. vehicle): not
- effect on crawl speed (LS3 reduced crawl speed for wild type but not slo-1(null)) ([2]; 750 µM LS3 vs. vehicle): not
- effect on crawl speed ([2]; slo-1 null, LS3 in NGM, 30 min bath, normalized to vehicle-treated controls): did not significantly slow
- LS3-induced slowing response (reduction in crawl speed) [3]: rescued
- effect on Po (post vs. pre peptide) [4]: did not reduce Po; also recorded: Only when applied to the external side did LS3 significantly reduce Po
- % inhibition by 10 µM LS3 (mAcetylcholine M1): 12.6%
- % inhibition by 10 µM LS3 (mAcetylcholine M3): 11.5%
- % inhibition by 10 µM LS3 (mAcetylcholine M4): 6.8%
- ability to cross the BBB [5]: can cross the BBB; also recorded: rapidly crosses the BBB after systemic delivery; also recorded: crosses the blood-brain barrier (BBB)
- effect on sound evoked activity in the inferior colliculus ([6]; 0.3 mg/kg I.P. LS3): suppressed sound evoked activity in the inferior colliculus; also recorded: suppresses sound evoked activity in the IC when administered systemically
- spikes within the eRF, representative eRF ([6]; systemic (0.3 mg/kg I.P.) LS3, 2 hrs): 41 spikes
- spikes within the eRF, representative eRF ([6]; systemic (0.3 mg/kg I.P.) LS3, 5 hours): 37 spikes
- reduction in spikes within the eRF ([6]; systemic (0.3 mg/kg I.P.) LS3, over 2 hours, mean, 47 units from 5 CBA mice): 85%
- decrease in sound evoked activity within the receptive field, representative eRF ([6]; systemic (0.3 mg/kg I.P.) LS3, over 5 hours): 93%
- time course of driven activity ([6]; systemic LS3, mean of 49 units, F(32,936) = 7.724 P < 0.0001): continued to decline out to 7 hours
- mean driven activity within receptive field ([7]; 1 μL of 10 μM LS3, 120 minutes post application, baseline 450 spikes, mean, 49 units): ~ 225 spikes
- reduction of mean sound evoked activity ([7]; 1 μL of 10 μM LS3, after 3 hours, 47 recording sites, N = 5 mice): ~ 70%
- mean sound evoked activity ([7]; 1 μL of 10 μM LS3, after 3 hours, baseline 430, 47 recording sites, N = 5 mice): 130 spikes
- time course of driven activity ([7]; 1 μL of 10 μM LS3, mean of 49 units, F(5,206) = 5.085 P = 0.0002): continued to decline out to 4 hours
- reduction of sound evoked driven activity within the RF ([7]; 1 μL of 10 μM stock, from baseline pre-peptide, Fig. 5A,B representative eRFs): approximately 50%
